Results from article PMC12959148, “Exploring T. cruzi IMPDH as a promising target through Chagas Box screening and AVN-944 inhibition” (Antimicrobial Agents and Chemotherapy, 2026).
Several values for one entry are separate records, joined by “and”; a condition that tells them apart may be missing. Identical values can stand only once. Entries after “also recorded” stand apart in the source; their conditions may differ. Like-named read-outs stand apart in the source and are kept apart here.

Experiments:
human IMPDH isoenzymes = conditions: cited from earlier work
T. cruzi IMPDH = T. cruzi IMPDH (Trypanosoma cruzi, UniProt Q4CUG6); assay: biochemical
Procedure: (§1) Compounds were assayed at a single concentration of 10 μM. They were provided by GSK (GlaxoSmithKline) in a 384-well ready-to-use assay microplate containing 25 nL of each sample at 10 mM (100% DMSO). […] Velocities at steady state were calculated in the plate reader (CLARIOstar, BMG LabTech) as the maximum slope. […] After 15 min, resorufin fluorescence (Ex = 570 nm; Em = 590 nm) was measured in a plate reader (CLARIOstar, BMG LabTech). Data were normalized and plotted using GraphPad Prism 9.5.0.
The above-mentioned diaphorase-coupled assay was used. […] TcIMPDH activity was normalized, and the IC50 was calculated using GraphPad Prism 9.5.0.

[1] = tested on: T. cruzi amastigotes in H9c2 cells; assay: Image-based infection assay, intracellular amastigotes in H9c2 host cells; type: cell-based; conditions: Trypanosoma cruzi, read-out: EC50 against T. cruzi amastigotes in H9c2 cells
Procedure: To determine EC50 to kill intracellular amastigotes in H9c2 host cells, we used an image-based assay previously described in Alonso-Padilla et al. ([56]). Briefly, T. cruzi trypomastigotes (from LLC-MK2 supernatant) were used to infect H9c2 rat cardiomyocytes overnight. After washing, cells were incubated for 48 h in fresh DMEM, then seeded (1.5 × 10^3 cells/well) into 384-well plates with 50 µL assay volume (0.4% DMSO) containing 0.2 µL of compounds. After 72 h, cells were washed, fixed with 4% paraformaldehyde, and stained with Hoechst 33,342 (4 µg/mL). Images (five per well) were acquired using an Operetta microscope (20× objective) and analyzed with Columbus software. Data on cell count and infection ratio were processed in GraphPad Prism 9.5.0.

T. cruzi amastigotes = tested on: T. cruzi amastigotes; set-up: method as in PMID 25740547; conditions: calculated from reported pEC50 value; read-out: EC50 anti-amastigote activity, previously reported; cited from earlier work
TcIMPDH = TcIMPDH (Trypanosoma cruzi, UniProt Q4CUG6); assay: Chagas Box single-concentration screening for TcIMPDH inhibitors; type: biochemical
Procedure: as §1

CYP51 = tested on: CYP51; set-up: method as in PMID 25740547; conditions: cited from earlier work
T. cruzi = tested on: T. cruzi; set-up: method as in PMID 12070425; conditions: cited from earlier work
L. donovani IMPDH = conditions: read-out: Km of L. donovani IMPDH for substrate; cited from earlier work
T. brucei IMPDH = tested on: T. brucei IMPDH; set-up: method as in PMID 23369253; conditions: read-out: Km of T. brucei IMPDH for substrate; cited from earlier work
recombinant TcIMPDH = assay: TcIMPDH Michaelis-Menten kinetics, NADH fluorescence direct assay; type: biochemical, Trypanosoma cruzi; conditions: 25°C, pH 7, other substrate at 1 mM, 1 μM enzyme
Procedure: Em = 485 nm) at 25°C, in black 384-wells microplates. Fluorescence was recorded every 30 s over 10 min using a CLARIOstar plate reader (BMG LabTech) and steady-state velocities were calculated from the maximum slope of the fluorescence curve. All reactions were performed in triplicate, under optimized buffer conditions: 50 mM tri-sodium citrate (pH 7), 100 mM KCl, and 1 mM DTT. For both substrates, 1 μM of purified recombinant […] was used.

human IMPDHs = conditions: read-out: Km of human IMPDHs for substrate; cited from earlier work
[2] = H9c2, 72 h, image-based, at least two biological replicates
[3] = read-out: IC50 against T. cruzi IMPDH

Chain of T. cruzi IMPDH (Q4CUG6 entry or part of it): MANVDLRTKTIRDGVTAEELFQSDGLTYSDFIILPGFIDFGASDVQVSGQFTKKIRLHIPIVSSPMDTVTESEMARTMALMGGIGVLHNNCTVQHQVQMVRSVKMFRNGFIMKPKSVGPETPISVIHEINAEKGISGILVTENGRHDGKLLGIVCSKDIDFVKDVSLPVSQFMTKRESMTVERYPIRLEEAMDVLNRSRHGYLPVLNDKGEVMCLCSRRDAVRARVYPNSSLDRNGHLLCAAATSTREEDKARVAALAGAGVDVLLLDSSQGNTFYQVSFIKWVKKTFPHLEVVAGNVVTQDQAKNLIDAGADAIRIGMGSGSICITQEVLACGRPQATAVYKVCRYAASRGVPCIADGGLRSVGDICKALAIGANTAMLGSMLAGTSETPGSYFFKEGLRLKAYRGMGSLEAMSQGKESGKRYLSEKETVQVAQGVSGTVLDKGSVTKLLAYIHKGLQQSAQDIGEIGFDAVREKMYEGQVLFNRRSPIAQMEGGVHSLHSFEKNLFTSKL
Chain of TcIMPDH (Q4CUG6 entry or part of it): as above

For `CC[C@H](CC#N)OC(=O)N[C@@H](C)c1cccc(NC(=O)Nc2ccc(-c3cnco3)c(OC)c2)c1` [AVN-944], the Ki (human IMPDH isoenzymes) is listed as 6 to 10 nM, the IC50 (T. cruzi IMPDH) is listed as 200 nM and the Ki (T. cruzi IMPDH) is listed as about 81 nM. The EC50 ([1]; H9c2, 72 h) was 400 nM.

For `COc1cc(NC(=O)Nc2cccc(CNC(=O)O[C@@H]3CCOC3)c2)ccc1-c1cnco1` [(R)-Merimepodib], the IC50 (T. cruzi IMPDH) was 370 nM and the EC50 [1, 2] was 3000 nM.

With `COc1cc(NC(=O)Nc2cccc(CNC(=O)O[C@H]3CCOC3)c2)ccc1-c1cnco1` [(S)-Merimepodib] the IC50 (T. cruzi IMPDH) was 210 nM and the EC50 [1, 2] was 4800 nM.

For `COc1cc(NC(=O)Nc2cccc(CNC(=O)OC3CCCCC3)c2)ccc1-c1cnco1` [TCMDC-143376], the EC50 (T. cruzi amastigotes) is listed as ~15900 nM and 15900 nM, the IC50 (T. cruzi IMPDH; [3]) is listed as 4000 nM and the inhibition at 10 µM (TcIMPDH; 10 μM compound, two independent runs, read-out: inhibition of TcIMPDH in primary screening) is listed as 55 to 60%. The IC50 (TcIMPDH; estimated from inhibition at the fixed concentration 10 μM, read-out: IC50 suggested by screening) was under 10000 nM and the IC50 (CYP51) was about 25000 nM.

In the case of `COc1c(C)c2c(c(O)c1C/C=C(\C)CCC(=O)OCCN1CCOCC1)C(=O)OC2` [Mycophenolate mofetil], the “parasitemia in Chagas murine model” value (T. cruzi) is given as “reduction of parasitemia”, the “survival / parasitological cure in Chagas murine model” value (T. cruzi) is given as “fails to improve survival outcomes or achieve parasitological cure” and the IC50 (T. cruzi IMPDH; [3]) is given as 4400 nM. For the same compound, the EC50 [1, 2] was 1500 nM.

With `NC(=O)c1ncn([C@@H]2O[C@H](CO)[C@@H](O)[C@H]2O)c1O` [Mizoribine] the “inhibition of TcIMPDH activity” value (T. cruzi IMPDH) was “did not show measurable inhibition; also recorded: inactive”.

For `NC(=O)c1ccc[n+]([C@@H]2O[C@H](COP(=O)([O-])OP(=O)(O)OC[C@H]3O[C@@H](n4cnc5c(N)ncnc54)[C@H](O)[C@@H]3O)[C@@H](O)[C@H]2O)c1` [NAD^+, nicotinamide adenine dinucleotide oxidized form], the Km (L. donovani IMPDH) is given as 390 µM, the Km (T. brucei IMPDH) is given as 1300 µM and the Km (recombinant TcIMPDH) is given as 292 µM. For the same compound, the Km (human IMPDHs) was 6 to 70 µM.

For `O=C(Cn1ccnc1[N+](=O)[O-])NCc1ccccc1` [Benznidazole], the EC50 [1, 2] was 3000 nM.
